# The METLIN SMRT retention time set (Domingo-Almenara et al. 2019)
# Test: gradient 5% acetonitrile 3 min, to 50% in 2 min, to 85% in 15 min, held 3 min, 100 µL/min
# Conditions: column: Zorbax Extend-C18 2.1 x 50 mm; eluents: water / acetonitrile, 0.1% formic acid
# Procedure, shortened: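 Using water and acetonitrile that each contained 0.1% formic acid, mixtures of ~100 pure standards were separated at 100 μL/min on a Zorbax Extend-C18 column (2.1 × 50 mm, 1.8 μm). The HPLC fed a quadrupole time-of-flight mass spectrometer working in positive and negative ionization mode, with dead and dwell volumes of 40 μL and 900 μL. Data were acquired over 3 months. Retention time was read from computationally picked adduct peaks after manual inspection of each.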
row,RP-LC retention time [s],Structure (SMILES)
1,686,CCc1nncn1C1CCN(S(=O)(=O)c2ccccc2C)CC1
2,1240,COc1ccc(C(C)NS(=O)(=O)c2cc(-c3nc(C(C)(C)C)cs3)cs2)cc1 (stereo not given)
3,906,Cc1ccc(CN2C(=O)CN(S(C)(=O)=O)CC2(C)C(=O)NCc2ccc(Cl)cc2)cc1 (stereo not given)
4,693,COc1ccccc1C(=O)N1CCCC1c1c(C)noc1C (stereo not given)
5,680,Cc1ccc(CNC(=O)C2CCN(c3cnc(N4CCCC4)nc3)CC2)cc1
6,1090,COc1ccc(Cl)cc1NC(=O)Cn1nc(N2CCCC2)c2ccccc2c1=O
7,639,CCc1cc(=O)n(CC(=O)Nc2ccccc2C)c(N)n1
8,575,CS(=O)(=O)N1C[C@H]2CCN(Cc3cccc(F)c3F)C[C@H]21
9,709,CC(C)NC(=O)C1CCCN(c2nc3ncn(CC(=O)NC4CCc5ccccc54)c(=O)c3s2)C1 (stereo not given)
10,784,O=C(Cn1nc2c(cc1=O)CCCC2)NCCc1nc(-c2ccccc2)cs1
11,1010,O=C(NCCc1ccccc1)C1=Cc2ccccc2OC=C1
12,938,CCCS(=O)(=O)N1CC(=O)N(c2ccc(F)cc2)C(C)(C(=O)NC2CCCCCC2)C1 (stereo not given)
13,638,CCOc1ccccc1NC(=O)Cn1ccnc1-c1ccnc(N2CCOCC2)c1
14,761,CC(=O)Nc1ccc(-c2noc(C3CCN(C(=O)Cc4c[nH]c5ccccc45)CC3)n2)cc1
15,802,CCOc1ccc2nc(C(=O)NC(C)(C)C)cn2n1
16,715,CCOc1cc(Cl)c(S(=O)(=O)NCc2ccccn2)cc1Cl
17,1110,CCCOc1c(C(=O)OC)sc2ccc(NC(=O)c3cc(-c4cccs4)[nH]n3)cc12
18,857,COc1ccc(CN2CCN(C(c3ccc(F)cc3)c3ccc(F)cc3)CC2)c(OC)c1OC
19,762,O=S(=O)(c1cnc[nH]1)N1CCC(c2nc(CCOc3ccc(F)cc3)no2)C1 (stereo not given)
20,733,O=C(Cn1nc(N2CCOCC2)c2ccccc2c1=O)Nc1ccc2c(c1)OCO2

row,RP-LC retention time [s],Structure (SMILES)
1,549,Cn1cc(C(=O)N2CC(c3noc(C4CCCN4CC4CC4)n3)C2)cn1 (stereo not given)
2,764,CN1C(=O)C2(CCN(C(=O)Nc3ccccc3)C2)c2ccccc21 (stereo not given)
3,667,O=C(Nc1cccc(-c2cn3c(n2)SCC3)c1)c1cc(-c2ccco2)on1
4,610,COC(=O)c1cccc(NC(=O)NC(C(=O)N2CCc3ccccc32)C(C)C)c1 (stereo not given)
5,1230,CC1(C(=O)NCc2ccccc2)CCN(S(=O)(=O)c2ccc(C3CCCCC3)cc2)CC1
6,915,CCC(C)(C)C(=O)NC1CCN(C2=NS(=O)(=O)C(c3cccc(Cl)c3)=C2C)CC1
7,598,CCc1nc2cc(N3CCC(C(=O)NCc4cccnc4)CC3)cnc2nc1CC
8,1050,Cc1cc(Cl)ccc1OCc1nc(-c2ccc3c(c2)nnn3CCC(=O)N2CCCC2)no1
9,1330,Cc1cccc(N2CCN(c3ccc4cc(S(=O)(=O)N5CCCCC5C)ccc4n3)CC2)c1C (stereo not given)
10,905,COC(=O)c1cccc(NC(=O)CSc2cc(N3CCN(c4ccc(OC)cc4)CC3)ncn2)c1
11,726,CCOC(=O)c1csc(NC(=O)c2ccc3ncsc3c2)n1
12,1100,CCc1nc(-c2csc(S(=O)(=O)N3CCCC(C(=O)NC4CCC(C)CC4)C3)c2)no1 (stereo not given)
13,688,CCCC(NC(=O)c1ccccc1)C(=O)Nc1nc2ccccc2[nH]1 (stereo not given)
14,906,Cc1ccc(-c2nc(NC3CCCCC3C)c3ccccc3n2)cc1 (stereo not given)
15,742,O=C(Cn1nc(N2CCOCC2)c2ccccc2c1=O)Nc1ccccc1
16,789,O=C(Cn1cncc(-c2nc(-c3ccccc3)cs2)c1=O)N1CCCC1
17,867,Cc1nnc(-c2ccc3ccn(CC(=O)N4CCN(c5ccccc5F)CC4)c3c2)o1
18,584,Cc1ccc2[nH]c(=O)c(CCC(=O)NCc3cccnc3)cc2c1
19,945,CC1CCc2onc(C(=O)N(CCC#N)c3ccccc3)c2C1 (stereo not given)

# Further lines, the molecule ahead of its results:
row,Structure (SMILES),RP-LC retention time [s]
1,Cc1ccc(Nc2nc(C(=O)NC(C)Cc3ccco3)nc3ccccc23)cc1 (stereo not given),873
2,Cc1nnc(N2CCCC(C(=O)NCc3ccccc3)C2)c2nn(-c3ccc(Cl)cc3)c(C)c12 (stereo not given),765
3,CSc1cccc(NC(=O)N(C)CCc2noc(-c3ccc(F)cc3)n2)c1,922
4,Cc1cccc(-c2nnc(C)c(N3CCC(C)CC3)n2)c1,771
5,O=C(NC1CCCCCC1)C1CCCN(C(=O)c2ccc(Cl)cc2)C1 (stereo not given),904
6,O=C(Nc1nnc(-c2ccc(Br)cc2)o1)c1ccccc1F,788
7,COCc1cn(CC2CCCN(Cc3cn(C)c4ccc(OC)cc34)C2)nn1 (stereo not given),600
8,Cc1nnc(C2CCCCCN2C(=O)c2ocnc2C)o1 (stereo not given),628
9,COCCNC(=O)N1CCCN(C2=NS(=O)(=O)C(c3ccccc3)=C2C)CC1,676
10,C=CCN1C(=O)COc2ccc(-c3csc(NC(=O)C4CCCCC4)n3)cc21,1060
11,COCCNC(=O)C1CCCN1S(=O)(=O)c1cc2c(cc1Cl)NC(=O)CO2 (stereo not given),627
12,O=C(c1ccoc1)N1CCCC(c2cc(-c3ccccc3)n[nH]2)C1 (stereo not given),594
13,Nc1nc(N2CCCC2)ncc1C(=O)NCc1ccccc1,615
14,Cc1ccc(CNC(=O)C2(C)Cn3nc(C(=O)NCCN(C)C)cc3C(=O)N2C)cc1 (stereo not given),639
15,Cc1cc2nn(CC(=O)Nc3c(C)cccc3C)c(=O)n2c(-c2ccc(F)cc2)n1,826
16,O=C1CCCC(=O)C1C(=O)c1ccc(C(F)(F)F)cc1[N+](=O)[O-],1070
17,COc1ccc(NC(=O)N2CCc3nc[nH]c3C2)cc1Cl,580
18,O=C(NCc1ccccc1Cl)c1nnc(-c2ccc(S(=O)(=O)N3CCCC3)cc2)o1,934
19,Cc1sc(-c2nnc(C3CC3)o2)cc1NC(=O)C1CCC1,856
20,CCCN(Cc1ccc(OC)c(OC)c1)Cc1cc(=O)n2ccccc2n1,592
21,CCSc1nnc(-c2nn(C)c3c2CN(C(=O)c2ccccc2Cl)CC3)n1C,747
22,CS(=O)(=O)N1CCCc2cc(C(=O)Nc3ccc(Br)cc3F)ccc21,951
23,CCN1C(=O)COc2ccc(-c3noc(C4CCCN(S(=O)(=O)c5ccc(C)cc5)C4)n3)cc21 (stereo not given),1100
24,COc1nn(C)cc1C(=O)NCc1ccco1,599
25,CCOc1ccc(-c2nc3ncccn3c2NCc2ccc(F)cc2)cc1,759
26,CCCN(CC1CCOC1)S(=O)(=O)c1cccc(C)c1 (stereo not given),931

row,Structure (SMILES),RP-LC retention time [s]
1,O=C(NC1CCCCC1)C1CCc2ncc(-c3ccsc3)n2C1 (stereo not given),584
2,Cc1nc(N2CCN(c3ccccn3)CC2)nc2c1C(=O)CC(C)C2 (stereo not given),652
3,CCn1cnc2ccc(-c3noc(CNC(=O)c4ccccc4)n3)cc21,620
4,CC(C)CN1CCCC(COc2ccccc2C(=O)NC2CC2)C1 (stereo not given),606
5,O=C(Nc1ccccc1F)C1CCCN(S(=O)(=O)c2c[nH]c(C(=O)N3CCCCCC3)c2)C1 (stereo not given),880
6,CS(=O)(=O)NC(=O)c1cc(Cl)c(COc2ccc(Cl)c(Cl)c2)cc1F,1170
7,Cc1ccc(-c2cn3ccn(-c4ccc(F)cc4)c(=O)c3n2)cc1C,901
8,COc1ccc(-c2c(NC(=O)c3ccco3)n(-c3ccccc3)nc(C)c2=O)cc1,674
9,O=C(NCc1cccs1)N1CCN(c2nc3c(F)cc(F)cc3s2)CC1,849
10,COc1ccc(-c2csc(Nc3ccccc3OC)n2)cc1,1130
11,Cc1cc(C)cc(NS(=O)(=O)c2c[nH]c3ncccc23)c1,758
12,O=C(Cn1c(=O)n(Cc2cccnc2)c(=O)c2ncccc21)c1ccc2c(c1)CCCC2,630
13,COc1ccccc1NC(=O)Cn1nc2n(c1=O)CCCCC2,709
14,CCn1nccc1-c1cccc(-c2noc(-c3ccc(OC)cc3)n2)c1,1210
15,COc1ccc(C2(C(=O)N3CC(c4ncc(C)n4Cc4cccnc4)C3)CC2)cc1,593
16,CCc1nnc(NC(=O)CSc2nccn2-c2ccc(F)cc2)s1,653
17,Cc1oc(-c2[nH]ncc2C(=O)N(C)C)cc1S(=O)(=O)Nc1cccc(C(F)(F)F)c1,763
18,CCCCNC(=O)C1CCCN(C(=O)Nc2ccc(NC(=O)Nc3ccccc3)cc2)C1 (stereo not given),812
19,CC(C)(C)c1noc(-c2ccc(-n3cnc(C(=O)N4CCOCC4)c3)nc2)n1,793
20,CC1CN(C(=O)Cn2cc(SCC(=O)NC3CCCC3)c3ccccc32)CC(C)O1 (stereo not given),826
21,Cc1cc(-c2nnc(-c3ccccc3)o2)c(C)n1CC(=O)Nc1cc(F)ccc1F,994
22,C=CCN1C(=O)COc2ccc(-c3nc(NC(=O)Cc4ccccc4)sc3C)cc21,1000
23,O=C(Cn1cccc(S(=O)(=O)N2CCOCC2)c1=O)N1CCc2ccccc21,667
24,Cc1cc(N2CCCC2)nc(N2CCN(C(=O)c3ccccc3Br)CC2)n1,579
25,Clc1ccc2nnc(Cc3ccccc3)n2n1,739
